Source: patent US5281583A, “LPS-containing analgesics and veterinary analgesics” (priority 1990, dated 1994)

What was measured:
C3H/H male mice = assay: acetic acid-writhing method, intravenous, time course in comparison with phenylbutazone; assay type: in vivo, mouse; conditions: for Writhing frequency / writhing inhibition: Group B, i.v. 1 mg/mouse
Source text: The analgesic effects of the LPSs of the present invention have been confirmed by an experiment using animals according to the acetic acid-writhing method described on page 415 of "Inflammation and anti-inflammatory therapy" issued in 1982 by Ishiyaku Shuppan Co. in Japan, one of the established methods for the determination of the effects of non-narcotic analgesics. The experiment included comparison with the prior art phenylbutazone which is often used to eliminate inflammatory pain.
2) The following preparations were given to six-membered groups of 8 week old C3H/H male mice (body weight: 20-25 g).
Group A: an intravenous solution prepared by dissolving 1 μg by weight/mouse of LPS (wheat LPS prepared in Reference Example 1) in 0.2 ml of physiological saline.
Group B: an intravenous solution prepared by dissolving 1 mg/mouse of the prior art analgesic phenylbutazone in 0.2 ml of 1% aqueous CMC solution.
Group C: 0.2 ml of physiological saline.
0.5 ml of 1% acetic acid was administered intraperitoneally 0.5, 1.5, 3, 8 or 18 hours after the administration of the preparations, and the writhing frequency of the respective mice was counted. The results are shown in Table 9 as an average of six mice in the respective groups. In the table, the writhing inhibition (%) was calculated as follows: [formula]
In the above equation, the writhing frequency in the group C is that obtained in the case where acetic acid was given 30 minutes after the administration of physiological saline, and the counting was made for 30 minutes. The data of the group A was 39, whereas that of the group B was 35.

[1] = test system: macrophage peritoneal cells of mice; assay: ability of LPS to activate in vitro TNF productivity of macrophage (TNF activity by cytotoxicity to L929 cells); assay type: cell-based, mouse
Protocol: In order to determine the ability of LPS to activate the in vitro TNF productivity of macrophage, a recombinant mouse IFN-γ is added to peritoneal macrophage cells of mouse as the primer followed by addition of the LPS as the trigger thereto, and then the TNF activity is determined.
The TNF activity is determined, as follows, on the basis of the cytotoxicity to L929 cells (Proci. Natl. Acad. Sci. U.S.A., 72, pp. 3666-3670, […]). L-929 cells are cultured in Eagles' Minimum Essential Medium (hereunder referred to only as MEM) with 5% fetal calf serum (hereunder referred to only as FCS) added thereto until 100 μl of the medium contains 8×10^4 cells, and then the cells are grown in a flat-bottomed plate having 96 wells.
The growth conditions are 37° C. in the presence of 5% CO2, and under a humidity of 100% for 2 hours, and the procedures may be the same as for the conventional cell culture. Then actinomycin D is added to the medium to a final concentration of 1 μg/ml, and the volume of the culture solution is adjusted to 150 μl. Immediately thereafter 50 μl of the sample diluted appropriately with MEM medium is added to the culture solution. Here, ED50 may be determined by adjusting the dilution appropriately. The L-929 cells having a final volume of 200 μl are cultured for an additional 18 hours under the same conditions as described above.
In order to determine the cell necrosis activity, first the whole medium is removed followed by addition of a 1% methyl alcoholic solution containing 0.1% crystal violet for fixation staining. Crystal violet stains all the eukaryotic cells, but the dead cells are removed off from the bottom of the flask only by washing after the staining; so the cell necrosis activity may be determined directly. The staining degree is measured on the basis of adsorption at OD590 nm, and is compared with that of a control to determine the cell necrosis activity. This activity is defined as follows.
The dilution of the sample which allows 50% of the L-929 cells to survive (N) is determined. Rabbit TNS is used as the control, and its activity n (units/ml) is determined using 2.4×10^6 units/mg/ml of TNF-α. The dilution which provides ED50 of rabbit TNS is determined.
The activity of the sample (units/ml) is calculated by the equation N/C×n.
Two hundred μl (2×10^5 cells)/well of macrophage peritoneal cells of mice (each group comprised three mice of 9 weeks old and having an average weight of 29 g) were placed in a flat-bottomed plate having 96 wells, and 10 μl of recombinant IFN-γ (100 units/ml) as a primer was placed in the respective wells. Separately, extracts prepared by extraction of various LPS sources with hot water at 65° C. for 5 hrs. were diluted to various degrees, and then were administered as triggers to the cells three hours after the administration of the primer in a proportion of 10 μl/well. After two hour culture, the culture solutions were subjected to centrifugation at 3,000 G for 20 min. A pipette was used to collect 130 μl of the supernatant from the respective wells, and the TNF activity was determined on the basis of the toxicity to L929 cells. The limulus test-positive LPS content was determined using Toxicolor System® commercially available from Sei-Kagaku Kogyo Co. in Japan.
The values were plotted to prepare a graph wherein the quantity of the TNF produced (units/ml of culture solution) was plotted along the axis of ordinate, whereas the corresponding limulus test-positive LPS content (ng/ml of culture solution) was plotted along the axis of abscissa (on a logarithmic scale), and a sigmoid curve was prepared on the basis of the plotted points. The macrophage activation ability was estimated to be 0% in the case where it corresponded to the quantity of TNF produced by macrophage with no trigger added thereto, and 100% was assigned to the macrophage activation ability which provided the maximal constant of TNF. […]

[2] = LPS 2 ng/ml of culture solution
[3] = LPS 24 ng/ml of culture solution
[4] = LPS 240 ng/ml of culture solution
[5] = LPS 2400 ng/ml of culture solution

Molecule: CCCCC1C(=O)N(c2ccccc2)N(c2ccccc2)C1=O [phenylbutazone]
- significance of analgesic effects (double-sided t test) (C3H/H male mice; 3 hours after administration): no significant analgesic effects
- Writhing frequency (C3H/H male mice; time lapsed 0.5 h): 18
- writhing inhibition (C3H/H male mice; time lapsed 0.5 h): 49%
- Writhing frequency (C3H/H male mice; time lapsed 1.5 h): 7
- writhing inhibition (C3H/H male mice; time lapsed 1.5 h): 80%
- Writhing frequency (C3H/H male mice; time lapsed 3 h): 25
- writhing inhibition (C3H/H male mice; time lapsed 3 h): 29%

Molecule: Lipid A
- TNF produced [1, 2]: 4.7 units/ml of culture solution
- macrophage activation ability [1, 2]: 37%
- TNF produced [1, 3]: 9.4 units/ml of culture solution
- macrophage activation ability [1, 3]: 80%
- TNF produced [1, 4]: 11.1 units/ml of culture solution
- macrophage activation ability [1, 4]: 96%
- TNF produced [1, 5]: 11.5 units/ml of culture solution
- macrophage activation ability [1, 5]: 100%
